From publication PMC10307035, “Antiviral activity of singlet oxygen-photogenerating perylene compounds against SARS-CoV-2: Interaction with the viral envelope and photodynamic virion inactivation” (Virus Research, 2023)

Legend:
[1] = ROS generation rate / quantum yield, DPBF bleaching in methanol; assay type: physicochemical; settings: for φROS (ROS generation quantum yield): in methanol, DPBF trap, 450–470 nm illumination, riboflavin as reference
From the text: The ROS generation rate was estimated using the spectrophotometric method, based on the absorption changes of 1,3-diphenylisobenzofuran (DPBF, Sigma Aldrich, Germany) in methanol solution. Irreversible oxidation of DPBF by singlet oxygen results in peroxide formation, and DPBF bleaching. When light of 400–450 nm was used as actinic, DPBF bleaching occurred without any photosensitizer (PS) in solution. Therefore, to study photosensitized ROS generation, we used a white MCWHLP1 LED (Thorlabs, USA) with filters to limit the radiation to the 450–470 nm range (5.5 mW/cm^2).
Spectrophotometric measurements were performed in a Qpod 2e (Quantum Northwest, USA) thermostated cuvette holder at 25 °C with magnetic stirring (500 rpm). Absorption spectra were recorded using a MayaPro spectrophotometer (Ocean Optics, USA) and a stabilized white light source with a SLS201L tungsten lamp (Thorlabs, USA). Illumination was uniform over the entire volume of the cuvette, to prevent artifacts associated with the diffusion of non-reacted components into the illuminated volume of the cuvette. In this case, the rate of irreversible bleaching of DPBF (412 nm) was the same under both continuous and pulsed irradiation with equal total irradiation time. Illumination was performed in a pulsed mode (Fig. S5A), with 1 s of illumination followed by 5 s of dark adaptation, during which the absorption spectrum of the PS-DPBF solution was recorded. Data processing was performed as previously described ([Gvozdev et al., 2020]).

[2] = tested on: Vero cells; test: Cytotoxicity assay (Cell Counting Kit-8) in Vero cells; assay type: cell-based, African Green Monkey; settings: 10 µM, 48 h
Procedure: To determine the overall cytotoxicity of the tested compounds, Vero cells were cultured for 24 h in 96-well plates to form a confluent monolayer, and then were treated with the tested compounds at concentrations of 2 and 10 µM. After 48 h of cultivation in the dark at 37 °C under 5% CO2, the cell culture medium was aspirated. The potential cytotoxicity of the tested perylene derivatives was determined based on cell viability using Cell Counting Kit-8 (Dojindo Molecular Technologies, Munich, Germany) according to the manufacturer's instructions. The cell viabilities of compound-treated Vero cells were compared with those of control DMSO-treated cells. We also used the above-described protocol to assess the cytotoxicity of the selected perylene antivirals, at concentrations ranging from 0 to 10 µM, in CaCo-2 and CRFK cells.

[3] = Spectrofluorometric analysis of interaction with liposomes; assay type: physicochemical
[4] = ROS generation measurement with DMA trap in DMSO; assay type: physicochemical; settings: 465–480 nm, 30 mW/cm^2, 10 min
Procedure: ROS generation was also estimated using 9,10-dimethylanthracene (DMA), another specific fluorescent singlet oxygen trap, which forms nonfluorescent 9,10-dimethylanthracene endoperoxide after ROS-mediated DMA oxidation. Compounds (0, 0.1, 1, and 10 µM) in DMSO were mixed with DMA (0.5 µM), and these solutions were irradiated for 10 min at room temperature (RT) with light-emitting diodes (LED, 465–480 nm) having approximate power density of 30 mW/cm^2 (device description in Fig. S7). DMA fluorescence intensity was measured at ex/em wavelengths of 370/432 nm in the presence or absence of α-tocopherol (3 µg/mL) as an antioxidant. Singlet oxygen generation was accompanied by a decreased fluorescence signal of the DMA probe ([Zeng et al., 2020]).

Row | SMILES | φROS (ROS generation quantum yield) [1] [%] | cell viability (in words) [2] | also measured
1 | CC(=O)Nc1ccc(C#Cc2ccc3c4cccc5cccc(c6cccc2c63)c54)cc1 [Compound 15] | 23.1 ± 0.4 | – | –
2 | CCCCNC(=O)c1ccc(-c2ccc3c4cccc5cccc(c6cccc2c63)c54)s1 [Compound 19] | 59.1 ± 1.2 | moderately decreased cell viability | –
3 | CC(C)(C)C(=O)OCn1c(=O)c(C#Cc2ccc3c4cccc5cccc(c6cccc2c63)c54)cn(CC(=O)NCCO)c1=O [Compound 9] | 17.3 ± 0.2 | – | –
4 | O=c1[nH]cc(C#Cc2ccc3c4cccc5cccc(c6cccc2c63)c54)c(=O)[nH]1 [Compound 3] | 12.7 ± 1.2 | – | –
5 | CC(C)(C)C(=O)OCn1c(=O)c(C#Cc2ccc3c4cccc5cccc(c6cccc2c63)c54)cn(CC(=O)NCCCO)c1=O [Compound 10] | 16.5 ± 0.2 | – | –
6 | CC(C)(C)C(=O)OCn1c(=O)c(C#Cc2ccc3c4cccc5cccc(c6cccc2c63)c54)cn(CC(=O)NC[C@@H](O)C(C)(C)CO)c1=O [Compound 7] | 17.3 ± 0.2 | – | –
7 | CC(C)(C)C(=O)OCn1c(=O)c(C#Cc2ccc3c4cccc5cccc(c6cccc2c63)c54)cn(CC(=O)NCCCCO)c1=O [Compound 6] | 18.2 ± 0.2 | – | –
8 | O=c1[nH]c(=O)n([C@@H]2O[C@H](CO)[C@@H](O)[C@@H]2O)cc1C#Cc1ccc2c3cccc4cccc(c5cccc1c52)c43 [Compound 1, 5-(perylen-3-yl)ethynyl-arabino-uridine] | 22.8 ± 0.4 | – | –
9 | O=C(O)c1ccc2c3cccc4cccc(c5cccc1c52)c43 [Compound 20] | – | moderately decreased cell viability | photodynamic activity (DPBF trap, in words) ([1]; methanol, 450–470 nm): minimal; solubility in water (in words) [3]: good solubility in water; penetration into liposomal membranes (in words) ([3]; 10 µM in PBS, EPC/Chol 70/30 mol% liposomes): no fluorescence enhancement; ROS generation, DMA trap, under blue light [4]: minimal photodynamic activities
10 | CC(C)(C)C(=O)OCn1c(=O)c(C#Cc2ccc3c4cccc5cccc(c6cccc2c63)c54)cn(CC(=O)O)c1=O [Compound 5] | 20.5 ± 0.2 | moderately decreased cell viability | –
11 | O=C(c1ccc(-c2ccc3c4cccc5cccc(c6cccc2c63)c54)s1)N(CCO)CCO [Compound 18] | 60.0 ± 2.4 | – | –
12 | Cn1cc(C#Cc2ccc3c4cccc5cccc(c6cccc2c63)c54)c(=O)n(C)c1=O [Compound 4] | 22.8 ± 0.4 | moderately decreased cell viability | –
13 | CC(C)(C)C(=O)OCn1c(=O)c(C#Cc2ccc3c4cccc5cccc(c6cccc2c63)c54)cn(CC(=O)NCCCCCO)c1=O [Compound 11] | 17.2 ± 0.4 | – | –
14 | CC(C)(C)C(=O)OCn1c(=O)c(C#Cc2ccc3c4cccc5cccc(c6cccc2c63)c54)cn(CC(=O)NCCCCCCO)c1=O [Compound 12] | 18.1 ± 0.4 | moderately decreased cell viability | –
